Measured values: US11608313B2, “Adamantylmethylamine derivative and use thereof as pharmaceutical” (TOHOKU UNIVERSITY, priority 2017, dated 2023)

Experiments:
[1] = system: Alzheimer's disease model mice (APP23 mice); assay: Cognitive function in Alzheimer's disease model mice (Test Example 4); format: in vivo; conditions: APP23 mice 12 month-old, 1 mg/kg orally once a day for two months
Excerpt: The test compound was orally administered in a dissolved state in a 0.5% aqueous solution of carboxymethyl cellulose (vehicle) (the same applies hereunder).

[2] = system: CaMKII; assay: Protein phosphorylation in hippocampus of APP23 mice (immunoblotting); format: in vivo; conditions: APP23 mice chronically treated orally, 1 mg/kg, two months
Excerpt: Hippocampus samples were excised from APP23 mice, and hippocampal slices were suspended in an SDS sample buffer and analyzed for protein phosphorylation by immunoblotting using antibodies against CaMKII, CaMKIV and ERK (CaMKII: Fukunaga, et al., J. Biol. Chem. 1992, 267, 22527-22533; CaMKIV: Kasahara, et al., J. Biol. Chem. 2001, 276, 24044-24050; ERK: produced by Sigma-Aldrich). CaMKII, CaMKIV and ERK are all considered as molecules playing an important role in memory formation.

[3] = system: ob/ob mice; assay: Blood glucose levels in ob/ob mice; format: in vivo; conditions: chronic treatment 1 mg/kg for 4 weeks, on and after week 3
Method: In order to determine the hypoglycemic effect of TP-014, ob/ob mice were measured for blood glucose levels using an assay kit (produced by Technicon International Inc.). The measurement was taken for 4 weeks, and chronic treatment with TP-014 (1 mg/kg) was continued for 4 weeks. […] Tolbutamide was used as a control drug. Kir6.2 channels bind to SUR1 ([…]) on the cell membrane to form channels. The mechanism of action is considered to be inhibition of Kir6.2 channels. Tolbutamide inhibits Kir6.2 channels by binding to SUR1.

[4] = biological target: T1, Kir6.1 channels (Mus musculus, UniProt P97794); assay: Patch-clamp assay of outward potassium current in Kir6.1 channel-overexpressing cells; format: cell-based; conditions: 10 nM
T1 construct: The plasmid vector having inserted therein Kir6.1 channel cDNA: pcDNA3.1-Kir6.1; expressed in transfected cells; host or cells: Neuro2A (N2A) cells, mouse neuroblastoma
T1 sequence (P97794 1-424): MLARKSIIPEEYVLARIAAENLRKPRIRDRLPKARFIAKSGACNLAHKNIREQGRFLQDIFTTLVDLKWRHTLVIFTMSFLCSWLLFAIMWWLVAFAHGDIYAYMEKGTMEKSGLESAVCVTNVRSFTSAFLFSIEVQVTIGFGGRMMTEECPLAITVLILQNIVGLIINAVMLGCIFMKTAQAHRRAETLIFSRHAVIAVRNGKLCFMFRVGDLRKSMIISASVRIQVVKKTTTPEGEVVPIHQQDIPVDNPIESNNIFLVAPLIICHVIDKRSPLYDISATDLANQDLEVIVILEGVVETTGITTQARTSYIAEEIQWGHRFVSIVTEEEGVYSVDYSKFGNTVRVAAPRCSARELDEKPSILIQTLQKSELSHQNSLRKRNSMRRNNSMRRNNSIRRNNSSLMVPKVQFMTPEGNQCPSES
Excerpt: Further, the obtained Kir6.1 channel-overexpressing cells were used to measure potassium current discharged out of the cells by a conventional patch-clamp assay. ATP-sensitive potassium channels (Kir6.1 channels) are localized in the cell membranes of nerve cells. If the channels are inhibited and closed, the threshold of the nerve cell membranes rises to create a condition analogous to temporal generation of action potential, with the result that intracellular potassium current is discharged out of the cells and instead extracellular calcium current enters the cells. Immunoblotting of Kir6.1 channel-overexpressing cells (prepared by the aforementioned method) using an anti-Kir6.1 channel antibody (prepared by a conventional method) (n=5, under the same conditions as in Test Example 1, except for using the anti-Kir6.1 channel antibody) confirmed that Kir6.1 channels were overexpressed in N2A cells (FIG. 18-2; upper: immunoblot staining images; lower: quantitative representations of the signal intensity of staining bands).

[5] = system: Wild-type mice (C57BL/6J) treated with corticosterone; assay: Anxiety-related behavioral tests in corticosterone-treated wild-type mice; format: in vivo; conditions: 1 mg/kg orally once a day for 2 weeks
Method: Wild-type mice (C57BL/6J, Japan SLC, two month-old) treated with corticosterone (at a dose of 5 mg/kg once a day for 2 weeks) and Kir6.1-deficient mice treated with corticosterone were used as disease models showing anxiety-like symptoms, to perform five behavioral tests regarding anxiety-related behaviors. The Kir6.1-deficient mice were obtained from Professor Susumu Seino, School of Medicine of Kobe University (Miki T., et al., Nature Medicine 2002, 8, 466-472).
The apparatus used in this test consists of four arms arranged in a cross shape at an elevated position, which are either open or closed. Mice vulnerable to anxiety stay in the closed arms for a longer time, whereas those resistant to anxiety stay in the open arms. In FIG. 19-1, the time spent in the open arms is shown on the vertical axis.
Mice placed in a black box (dark place) feel anxious about light. The time spent until mice began to come out of the box (to a bright place) was measured. […]
In a cage with a mouse, wood chips are spread over the cage floor and 20 marbles are placed thereon in a manner that is visible to the mouse. The mouse is allowed to freely explore for 30 minutes, and the number of marbles buried and hidden by the mouse in wood chips is counted. […]
The test apparatus used in this test was the same as used in the light/dark test method. […] Such an immobility time of mice is measured. […]

O=C(N[C@@H](c1ccccc1)[C@H]1[C@H]2C[C@@H]3C[C@](Cl)(C2)C[C@@]1(OC(=O)C(F)(F)F)C3)C(F)(F)F [TP-014, (1S,2R,3S,5S,7S)-5-chloro-2-((R)-phenyl(2,2,2-trifluoroacetamido)methyl)adamantan-1-yl 2,2,2-trifluoroacetate]
cognitive function enhancing effect [1]: significant cognitive function enhancing effect
CaMKII phosphorylation in hippocampus [2]: increased CaMKII phosphorylation
blood glucose levels [3]: significantly decreased
outwardly flowing potassium current [4]: suppressed
exacerbated anxiety symptoms (elevated plus-maze, light/dark, marble burying, open field, fear conditioning tests) [5]: significant amelioration of exacerbated anxiety symptoms
